Like-named read-outs stand apart in the source and are kept apart here.
How the values were obtained:
CYP1A2 = target: T1, CYP1A2 (Homo sapiens, UniProt P05177); experiment: CYP inhibition assay in human liver microsomes; format: in vitro ADME; details: no pre-incubation, read-out: IC50 direct inhibition of CYP1A2
T1 sequence (P05177 1-516): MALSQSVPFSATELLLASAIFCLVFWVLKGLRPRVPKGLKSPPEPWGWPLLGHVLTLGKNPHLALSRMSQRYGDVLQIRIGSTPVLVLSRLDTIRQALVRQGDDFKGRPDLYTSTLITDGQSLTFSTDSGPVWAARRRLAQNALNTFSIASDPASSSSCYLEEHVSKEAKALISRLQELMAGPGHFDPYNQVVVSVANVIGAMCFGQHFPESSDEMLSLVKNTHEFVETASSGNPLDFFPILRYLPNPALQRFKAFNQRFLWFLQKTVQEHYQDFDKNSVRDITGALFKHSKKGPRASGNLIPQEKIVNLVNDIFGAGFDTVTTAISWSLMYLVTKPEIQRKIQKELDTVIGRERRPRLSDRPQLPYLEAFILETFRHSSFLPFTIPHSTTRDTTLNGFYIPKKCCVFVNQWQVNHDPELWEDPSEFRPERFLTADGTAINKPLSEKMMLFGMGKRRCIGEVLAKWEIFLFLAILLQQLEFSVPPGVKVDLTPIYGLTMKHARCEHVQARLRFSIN
Procedure: Each CYP substrate was incubated with human liver microsomes in the absence or presence of evocalcet, and the inhibition of evocalcet for each CYP isozyme was measured.

[1] = Pharmacokinetics of evocalcet after oral administration to male rats; details: rat, in vivo; for AUC(0-inf): AUC0-∞
Procedure: The plasma concentrations of evocalcet were determined after single or repeated oral administration in both normal and 5/6 Nx rats. The pharmacokinetic (PK) parameters of the rat plasma concentrations were calculated individually using Phoenix WinNonlin 6.2, a PK analysis software program (Pharsight Corporation, Sunnyvale, CA).

C[C@@H](N[C@H]1CCN(c2ccc(CC(=O)O)cc2)C1)c1cccc2ccccc12 [evocalcet]
IC50 (CYP1A2): > 50 µM
bioavailability ([1]; Sprague-Dawley, Bioavailability): > 80%
AUC(0-inf) ([1]; Sprague-Dawley, po, 0.1 mg/kg): 819 ng·h/mL
Cmax ([1]; Sprague-Dawley, po, 0.1 mg/kg): 222 ng/mL
bioavailability ([1]; Sprague-Dawley, po, 0.1 mg/kg, F (bioavailability)): 81.6%
half-life ([1]; Sprague-Dawley, po, 0.1 mg/kg, t1/2): 6.66 h
Tmax ([1]; Sprague-Dawley, po, 0.1 mg/kg, tmax): 0.25 h
AUC(0-inf) ([1]; Sprague-Dawley, po, 0.3 mg/kg): 2580 ng·h/mL
Cmax ([1]; Sprague-Dawley, po, 0.3 mg/kg): 600 ng/mL
bioavailability ([1]; Sprague-Dawley, po, 0.3 mg/kg, F (bioavailability)): 85.6%
half-life ([1]; Sprague-Dawley, po, 0.3 mg/kg, t1/2): 5.77 h
Tmax ([1]; Sprague-Dawley, po, 0.3 mg/kg, tmax): 0.38 h
t1/2 ([1]; Sprague-Dawley, po, 1 mg/kg): 6.13 h
AUC(0-inf) ([1]; Sprague-Dawley, po, 1 mg/kg): 8440 ng·h/mL
Cmax ([1]; Sprague-Dawley, po, 1 mg/kg): 2190 ng/mL
bioavailability ([1]; Sprague-Dawley, po, 1 mg/kg, F (bioavailability)): 84.2%
Tmax ([1]; Sprague-Dawley, po, 1 mg/kg, tmax): 0.81 h
half-life ([1]; normal rats, single oral dose 1 mg/kg, mean, read-out: t1/2 (converted)): 6.13 h
AUC(0-inf) ([1]; po, 0.1 mg/kg): 981 ng·h/mL
Cmax ([1]; po, 0.1 mg/kg): 221 ng/mL
half-life ([1]; po, 0.1 mg/kg, t1/2): 5.71 h
Tmax ([1]; po, 0.1 mg/kg, tmax): 0.25 h
Tmax ([1]; po, 0.3 mg/kg): 0.50 h
AUC(0-inf) ([1]; po, 0.3 mg/kg): 2260 ng·h/mL
Cmax ([1]; po, 0.3 mg/kg): 570 ng/mL
half-life ([1]; po, 0.3 mg/kg, t1/2): 5.68 h
Tmax ([1]; po, 0.3 mg/kg, tmax): 0.25 h
Tmax ([1]; po, 1 mg/kg): 1.00 h
AUC(0-inf) ([1]; po, 1 mg/kg): 7890 ng·h/mL
Cmax ([1]; po, 1 mg/kg): 1810 ng/mL
half-life ([1]; po, 1 mg/kg, t1/2): 6.99 h

— PMC5882164, “A novel calcimimetic agent, evocalcet (MT-4580/KHK7580), suppresses the parathyroid cell function with little effect on the gastrointestinal tract or CYP isozymes in vivo and in vitro” (PLoS ONE, 2018)
